According to patent US20070213303A1, “Methods for reducing platelet activation and for the treatment of thrombotic events” (priority 2005, published 2007):

Experiments:
Format in all cases: cell-based, human
[1] = system: platelets; assay: Conventional platelet aggregation induced by ADP
Procedure: (§1) Trisodium citrate (3.8%) and whole blood is immediately mixed in a 1:9 ratio, and then centrifuged at 1200 g for 2.5 minutes, to obtain platelet-rich plasma (PRP), which is kept at room temperature for use within 1 hour for platelet aggregation studies. Platelet count is determined in each PRP sample with a Coulter Counter ZM (Coulter Co., Hialeah, Fla.). Platelet numbers are adjusted to 3.50×10^8/ml for aggregation with homologous platelet-poor plasma. PRP and whole blood aggregation tests are performed simultaneously. Whole blood is diluted 1:1 with the 0.5 ml PBS, and then swirled gently to mix. The cuvette with the stirring bar is placed in the incubation well and allowed to warm to 37° C. for 5 minutes. Then the samples are transferred to the assay well. An electrode is placed in the sample cuvette. Platelet aggregation is stimulated with 5 μM ADP, 1 μg/ml collagen, and 0.75 mM arachidonic acid. All agonists are obtained, e.g., from Chronolog Corporation (Hawertown, Pa.). Platelet aggregation studies are performed using a Chrono-Log Whole Blood Lumi-Aggregometer (model 560-Ca). Platelet aggregability is expressed as the percentage of light transmittance change from baseline using platelet-poor plasma as a reference at the end of recording time for plasma samples, or as a change in electrical impedance for whole blood samples. Aggregation curves are recorded for 4 minutes and analyzed according to internationally established standards using Aggrolink® software.
(§2) The effect of doses (15 μg/ml to 90 μg/ml) of Compound A on in vitro platelet characteristics in subjects with multiple factors for vascular disease was tested.
(§3) The in vitro effects of pre-incubation with escalating concentrations of Compound A on platelet aggregation, and expression of major surface receptors by flow cytometry, were assessed in 20 aspirin naïve volunteers with multiple risk factors for vascular disease.

[2] = system: platelets; assay: Conventional platelet aggregation induced by collagen
Procedure: as §1, with “Platelet aggregation is stimulated with 5 μM ADP, 1 μg/ml collagen, and 0.75 mM arachidonic acid.” left out
as §2, §3

[3] = system: GP37 (CD165); assay: Flow cytometry, platelet surface expression of CD165
Procedure: (§4) Venous blood (8 ml) is collected in a plastic tube containing 2 ml of acid-citrate-dextrose (ACD) (7.3 g citric acid, 22.0 g sodium citrate.2H2O and 24.5 glucose in 1000 ml distilled water) and mixed well. The blood-ACD mixture is centrifuged at 1000 r.p.m. for 10 minutes at room temperature. The upper ⅔ of the platelet-rich plasma (PRP) is then collected and adjusted to pH=6.5 by adding ACD. The PRP is then centrifuged at 3000 r.p.m. for 10 minutes. The supernatant is removed and the platelet pellet is gently resuspended in 4 cc of the washing buffer (10 mM Tris/HCl, 0.15 M NaCl, 20 mM EDTA, pH=7.4). Platelets are washed in the washing buffer, and in TBS (10 mM Tris, 0.15 M NaCl, pH=7.4). All cells are then divided into the appropriate number of tubes. By way of example, if 9 different surface markers are evaluated, as described herein, then the cells should be divided into ten tubes, such that nine tubes containing washed platelets are incubated with 5 μl fluorescein isothiocyanate (FITC)-conjugated antibodies in the dark at +4° C. for 30 minutes, and one tube remains unstained and serves as a negative control. Surface antigen expression is measured with monoclonal murine anti-human antibodies, such as CD9 (p24); CD41a (IIb/IIIa, aIIbb3); CD42b (Ib); CD61(IIIa) (DAKO Corporation, Carpinteria, Calif.); CD49b (VLA-2, or a2b1); CD62p (P-selectin); CD31 (PECAM-1); CD 41b (IIb); and CD51/CD61 (vitronectin receptor, avb3) (PharMingen, San Diego Calif.), as the expression of these antigens on the cells is associated with platelet activation. After incubation, the cells are washed with TBS and resuspended in 0.25 ml of 1% paraformaldehyde. Samples are stored in the refrigerator at +4° C., and analyzed on a Becton Dickinson FACScan flow cytometer with laser output of 15 mw, excitation at 488 nm, and emission detection at 530±30 nm. The data can be collected and stored in list mode, and then analyzed using CELLQuest® software. FACS procedures are described in detail in, e.g., Gurbel, P. A. et al., J Amer Coll Cardiol 31: 1466-1473 (1998); Serebruany, V. L. et al., Am Heart J 136: 398-405 (1998); Gurbel, P. A. et al., Coron Artery Dis 9: 451-456 (1998) and Serebruany, V. L. et al., Arterioscl Thromb Vasc Biol 19: 153-158 (1999).
(§5) Four cc of blood is collected in a tube, containing 2 cc of acid-citrate-dextrose (ACD; 7.3 g citric acid, 22.0 g sodium citrate.2H2O and 24.5 glucose in 1000 ml distilled water) and mixed well. The buffer, TBS (10 mM Tris, 0.15 M NaCl, pH 7.4) and the following fluorescein isothiocyanate (FITC) conjugated monoclonal antibodies (PharMingen, San Diego, Calif., USA, and DAKO, Calif., USA) are removed from a refrigerator and allowed to warm at room temperature (RT) prior to their use. The non-limiting examples of antibodies that can be used include CD41 (IIb/IIIa), CD31 (PECAM-1), CD62p (P-selectin), and CD51/61 (Vitronectin receptor). For each subject, six amber tubes (1.25 ml) are one Eppendorf tube (1.5 ml) are obtained and marked appropriately 450 μl of TBS buffer is pipetted to the labeled Eppendorf tube. A patient's whole blood tube is inverted gently twice to mix, and 50 μl of whole blood is pipetted to the appropriately labeled Eppendorf tube. The Eppendorf tube is capped and the diluted whole blood is mixed by inverting the Eppendorf tube gently two times, followed by pipetting 50 μl of diluted whole blood to each amber tube. […] The samples are analyzed on a Becton Dickinson FACScan flow cytometer. […]

[4] = system: PAR-1 (WEDE15); assay: Flow cytometry, PAR-1 thrombin receptor expression (WEDE15)
Procedure: as §4, §5

[5] = system: platelet-monocyte microparticles (CD14+CD151); assay: Flow cytometry, formation of platelet-monocyte microparticles
Procedure: as §4, §5

[6] = system: LAMP-3 (CD63); assay: Flow cytometry, platelet surface expression of CD63
Procedure: as §4, §5

[7] = system: PAC-1; assay: Flow cytometry, activity with PAC-1 antibody
Procedure: as §4, §5

[8] = system: LAMP-1 (CD107a); assay: Flow cytometry, platelet surface expression of CD107a
Procedure: as §4, §5

Q: What does the source list for `CC(C)(Sc1cc(C(C)(C)C)c(O)c(C(C)(C)C)c1)Sc1cc(C(C)(C)C)c(OC(=O)CCC(=O)O)c(C(C)(C)C)c1` [Compound A]?
A: Conventional platelet aggregation, ADP 5 μM ([1]; preincubation 15 μg/mL): 39.95 ± 11.9%; Conventional platelet aggregation, ADP 5 μM ([1]; preincubation 30 μg/mL): 40.4 ± 6.9%; Conventional platelet aggregation, ADP 5 μM ([1]; preincubation 60 μg/mL): 42.05 ± 7.2%; Conventional platelet aggregation, ADP 5 μM ([1]; preincubation 90 μg/mL): 42.65 ± 6.3%; platelet aggregation induced by ADP ([1]; pretreatment of blood samples with 15-30-60-90 μg/ml): uniformed significant inhibition; collagen-induced aggregation [2]: little or no effect; Conventional platelet aggregation, Collagen 5 μg/ml ([2]; preincubation 15 μg/mL): 64.95 ± 5.1%; Conventional platelet aggregation, Collagen 5 μg/ml ([2]; preincubation 30 μg/mL): 65.6 ± 8.7%; Conventional platelet aggregation, Collagen 5 μg/ml ([2]; preincubation 60 μg/mL): 66.6 ± 6.8%; Conventional platelet aggregation, Collagen 5 μg/ml ([2]; preincubation 90 μg/mL): 65.5 ± 6.0%; GP37 (CD165) [3]: little or no effect; Flow cytometry CD165 ([3]; preincubation 15 μg/mL): 26.9 ± 2.7; Flow cytometry CD165 ([3]; preincubation 30 μg/mL): 24.7 ± 2.7; Flow cytometry CD165 ([3]; preincubation 60 μg/mL): 26.4 ± 3.7; Flow cytometry CD165 ([3]; preincubation 90 μg/mL): 25.5 ± 3.2; Flow cytometry PAR-1 (WEDE15) ([4]; preincubation 15 μg/mL): 40.6 ± 5.5; Flow cytometry PAR-1 (WEDE15) ([4]; preincubation 30 μg/mL): 36.1 ± 4.7; Flow cytometry PAR-1 (WEDE15) ([4]; preincubation 60 μg/mL): 37.7 ± 5.5; Flow cytometry PAR-1 (WEDE15) ([4]; preincubation 90 μg/mL): 34.3 ± 5.2; PAR-1 thrombin receptor expression, active epitope ([4]; pretreated samples): reduced; Flow cytometry CD151 + 14 ([5]; preincubation 15 μg/mL): 131.4 ± 11.8; Flow cytometry CD151 + 14 ([5]; preincubation 30 μg/mL): 107.6 ± 15.4; Flow cytometry CD151 + 14 ([5]; preincubation 60 μg/mL): 98.7 ± 12.9; Flow cytometry CD151 + 14 ([5]; preincubation 90 μg/mL): 97.9 ± 10.8; Formation of platelet-monocyte microparticles (CD14+CD151) ([5]; pretreated samples): reduced; LAMP-3 (CD63) [6]: little or no effect; Flow cytometry CD63 ([6]; preincubation 15 μg/mL): 7.0 ± 1.4; Flow cytometry CD63 ([6]; preincubation 30 μg/mL): 7.4 ± 1.4; Flow cytometry CD63 ([6]; preincubation 60 μg/mL): 6.8 ± 1.5; Flow cytometry CD63 ([6]; preincubation 90 μg/mL): 6.7 ± 1.4; Flow cytometry PAC-1 ([7]; preincubation 15 μg/mL): 11.4 ± 1.1; Flow cytometry PAC-1 ([7]; preincubation 30 μg/mL): 11.2 ± 1.4; Flow cytometry PAC-1 ([7]; preincubation 60 μg/mL): 10.9 ± 2.2; Flow cytometry PAC-1 ([7]; preincubation 90 μg/mL): 10.3 ± 1.8; GP IIb/IIIa activity with PAC-1 antibody ([7]; pretreated samples): decreased; LAMP-1 (CD107a) [8]: little or no effect; Flow cytometry CD107a ([8]; preincubation 15 μg/mL): 6.7 ± 1.5; Flow cytometry CD107a ([8]; preincubation 30 μg/mL): 6.4 ± 1.4; Flow cytometry CD107a ([8]; preincubation 60 μg/mL): 6.1 ± 1.5; Flow cytometry CD107a ([8]; preincubation 90 μg/mL): 6.4 ± 1.6
